The term inhibition denotes the change of the read-out against control, counted positive when it falls. Low values mean little suppression, high ones strong suppression.

One compound from patent US12404345B2, “Humanized antibodies against iRHOM2” (SCIRHOM GMBH, priority 2021, dated 2025) can be followed below.

The assay has as its system PMA-induced release of endogenous IL-6R from human PBMCs from healthy donors. The assay can be described thus: ELISA-based IL-6R release assay, PMA-induced, PBMCs from healthy donors. Format: cell-based. The settings on record: PBMC, Batimastat 10 μM, PMA 25 ng/ml, 24 hours. The procedure: In the following study, ELISA-based IL-6R release assays were performed to analyze the inhibitory effects of the antibodies of the invention on PMA-induced release of endogenous IL-6R from primary human material obtained from healthy donors using peripheral blood mononuclear cells (PBMCs).
In brief, on day 1, Nunc black MaxiSorp® 96-well plates (Thermo Fisher Scientific, USA) were coated overnight with 100 μl per well of mouse anti-human IL-6R capture antibody (provided as part of the DuoSet ELISA kit) at 2 μg/ml TBS at 4° C. […]
Meanwhile, the 96-well plates were centrifuged to pellet cells. […] Using an infinite M1000 (Tecan Group, Switzerland) microplate reader, the fluorescence of each well was collected at an excitation wavelength of 435 nm and an emission wavelength of 555 nm.
For orientation: In an ELISA, binding on a coated surface is turned into a signal by an enzyme label.

`CNC(=O)[C@H](Cc1ccccc1)NC(=O)[C@H](CC(C)C)[C@H](CSc1cccs1)C(=O)NO` [Batimastat] yielded an inhibition at 10 µM of 96.2%.
